Test results: PubChem BioAssay (NCI)
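In this assay, cells in 96-well plates receive the compound at five concentrations for 48 hours. Endpoints are linearly interpolated between the surrounding concentrations. GI50 is the concentration that inhibits growth by half. TGI: concentration producing complete growth inhibition.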

Tests used:
Assay in all cases: inhibition of tumour cell growth, NCI panel, 48 h
786-0 renal = test system: 786-0 renal
A498 renal = test system: A498 renal
A549 NSCLC = test system: A549 NSCLC
ACHN renal = test system: ACHN renal
BT-549 breast = test system: BT-549 breast
CAKI-1 renal = test system: CAKI-1 renal
CCRF-CEM leukemia = test system: CCRF-CEM leukemia
COLO 205 colon = test system: COLO 205 colon
DU-145 prostate = test system: DU-145 prostate
EKVX NSCLC = test system: EKVX NSCLC
HCC-2998 colon = test system: HCC-2998 colon
HCT-116 colon = test system: HCT-116 colon
HCT-15 colon = test system: HCT-15 colon
HL-60(TB) leukemia = test system: HL-60(TB) leukemia
HOP-62 NSCLC = test system: HOP-62 NSCLC
HOP-92 NSCLC = test system: HOP-92 NSCLC
HS 578T breast = test system: HS 578T breast
HT29 colon = test system: HT29 colon
IGROV1 ovarian = test system: IGROV1 ovarian
K-562 leukemia = test system: K-562 leukemia
KM12 colon = test system: KM12 colon
LOX IMVI melanoma = test system: LOX IMVI melanoma
M14 melanoma = test system: M14 melanoma
MALME-3M melanoma = test system: MALME-3M melanoma
MCF7 breast = test system: MCF7 breast
MDA-MB-231 breast = test system: MDA-MB-231 breast
MDA-MB-435 = test system: MDA-MB-435
MOLT-4 leukemia = test system: MOLT-4 leukemia
NCI-H226 lung = test system: NCI-H226 lung
NCI-H23 lung = test system: NCI-H23 lung
NCI-H460 lung = test system: NCI-H460 lung
NCI-H522 lung = test system: NCI-H522 lung
NCI/ADR-RES ovarian = test system: NCI/ADR-RES ovarian
OVCAR-3 ovarian = test system: OVCAR-3 ovarian
OVCAR-4 ovarian = test system: OVCAR-4 ovarian
OVCAR-5 ovarian = test system: OVCAR-5 ovarian
OVCAR-8 ovarian = test system: OVCAR-8 ovarian
PC-3 prostate = test system: PC-3 prostate
RPMI-8226 leukemia = test system: RPMI-8226 leukemia
RXF 393 renal = test system: RXF 393 renal
SF-268 CNS = test system: SF-268 CNS
SF-295 CNS = test system: SF-295 CNS
SF-539 CNS = test system: SF-539 CNS
SK-MEL-2 melanoma = test system: SK-MEL-2 melanoma
SK-MEL-28 melanoma = test system: SK-MEL-28 melanoma
SK-MEL-5 melanoma = test system: SK-MEL-5 melanoma
SK-OV-3 ovarian = test system: SK-OV-3 ovarian
SN12C renal = test system: SN12C renal
SNB-19 CNS = test system: SNB-19 CNS
SNB-75 CNS = test system: SNB-75 CNS
SW-620 colon = test system: SW-620 colon
T-47D breast = test system: T-47D breast
TK-10 renal = test system: TK-10 renal
U251 CNS = test system: U251 CNS
UACC-257 melanoma = test system: UACC-257 melanoma
UACC-62 melanoma = test system: UACC-62 melanoma
UO-31 renal = test system: UO-31 renal

Compound `CC1=NOC(C)(O)/C1=N/O` (centres undefined) has a TGI (786-0 renal) greater than 100 µM, a TGI (A498 renal) greater than 100 µM and a TGI (A549 NSCLC) greater than 100 µM. The TGI (ACHN renal) was greater than 100 µM, the TGI (BT-549 breast) was greater than 100 µM and the TGI (CAKI-1 renal) was greater than 100 µM. It also gave a TGI (CCRF-CEM leukemia) greater than 100 µM, a TGI (COLO 205 colon) greater than 100 µM and a TGI (DU-145 prostate) greater than 100 µM. The TGI (EKVX NSCLC) was greater than 100 µM, the TGI (HCC-2998 colon) was greater than 100 µM and the TGI (HCT-116 colon) was greater than 100 µM. The TGI (HCT-15 colon) was greater than 100 µM, the TGI (HL-60(TB) leukemia) was greater than 100 µM and the TGI (HOP-62 NSCLC) was greater than 100 µM. For the same compound, the TGI (HOP-92 NSCLC) was greater than 100 µM, the TGI (HS 578T breast) was greater than 100 µM and the TGI (HT29 colon) was greater than 100 µM. For the same compound, the TGI (IGROV1 ovarian) was greater than 100 µM, the TGI (K-562 leukemia) was greater than 100 µM and the TGI (KM12 colon) was greater than 100 µM. It also gave a TGI (LOX IMVI melanoma) greater than 100 µM, a TGI (M14 melanoma) greater than 100 µM and a TGI (MALME-3M melanoma) greater than 100 µM. It also gave a TGI (MCF7 breast) greater than 100 µM, a TGI (MDA-MB-231 breast) greater than 100 µM and a TGI (MDA-MB-435) greater than 100 µM. It also gave a TGI (MOLT-4 leukemia) greater than 100 µM, a TGI (NCI-H226 lung) greater than 100 µM and a TGI (NCI-H23 lung) greater than 100 µM. It also gave a TGI (NCI-H460 lung) greater than 100 µM, a TGI (NCI-H522 lung) greater than 100 µM and a TGI (NCI/ADR-RES ovarian) greater than 100 µM. It also gave a TGI (OVCAR-3 ovarian) greater than 100 µM, a TGI (OVCAR-4 ovarian) greater than 100 µM and a TGI (OVCAR-5 ovarian) greater than 100 µM. For the same compound, the TGI (OVCAR-8 ovarian) was greater than 100 µM, the TGI (PC-3 prostate) was greater than 100 µM and the TGI (RPMI-8226 leukemia) was greater than 100 µM. The TGI (RXF 393 renal) was greater than 100 µM, the TGI (SF-268 CNS) was greater than 100 µM and the TGI (SF-295 CNS) was greater than 100 µM. The TGI (SF-539 CNS) was greater than 100 µM, the TGI (SK-MEL-2 melanoma) was greater than 100 µM and the TGI (SK-MEL-28 melanoma) was greater than 100 µM. For the same compound, the TGI (SK-MEL-5 melanoma) was greater than 100 µM, the TGI (SK-OV-3 ovarian) was greater than 100 µM and the TGI (SN12C renal) was greater than 100 µM. The TGI (SNB-19 CNS) was greater than 100 µM, the TGI (SNB-75 CNS) was greater than 100 µM and the TGI (SW-620 colon) was greater than 100 µM. For the same compound, the TGI (T-47D breast) was greater than 100 µM, the TGI (TK-10 renal) was greater than 100 µM and the TGI (U251 CNS) was greater than 100 µM. The TGI (UACC-257 melanoma) was greater than 100 µM, the TGI (UACC-62 melanoma) was greater than 100 µM and the TGI (UO-31 renal) was greater than 100 µM.
Compound `COc1cc(/C=C\c2cc(/C=C\c3ccc(O)c(OC)c3)n(C(=O)COc3ccc(Cl)cc3Cl)n2)ccc1O` has a GI50 (786-0 renal) of 0.634 µM, a TGI (786-0 renal) of 2.52 µM and a GI50 (A498 renal) of 3.82 µM. The TGI (A498 renal) was 12 µM, the GI50 (A549 NSCLC) was 1.31 µM and the TGI (A549 NSCLC) was 10.3 µM. The GI50 (ACHN renal) was 0.476 µM, the TGI (ACHN renal) was 9.13 µM and the GI50 (BT-549 breast) was 0.526 µM. For the same compound, the TGI (BT-549 breast) was 3.34 µM, the GI50 (CAKI-1 renal) was 0.818 µM and the TGI (CAKI-1 renal) was greater than 100 µM. For the same compound, the GI50 (CCRF-CEM leukemia) was 0.432 µM, the TGI (CCRF-CEM leukemia) was greater than 100 µM and the GI50 (COLO 205 colon) was 1.98 µM. It also gave a TGI (COLO 205 colon) of 4.01 µM, a GI50 (DU-145 prostate) of 0.833 µM and a TGI (DU-145 prostate) of 9.94 µM. For the same compound, the GI50 (EKVX NSCLC) was 1.98 µM, the TGI (EKVX NSCLC) was 9.72 µM and the GI50 (HCC-2998 colon) was 2.89 µM. It also gave a TGI (HCC-2998 colon) of 12.4 µM, a GI50 (HCT-116 colon) of 0.416 µM and a TGI (HCT-116 colon) of 6.21 µM. For the same compound, the GI50 (HCT-15 colon) was 0.342 µM, the TGI (HCT-15 colon) was 3.61 µM and the GI50 (HL-60(TB) leukemia) was 0.314 µM. It also gave a TGI (HL-60(TB) leukemia) of 1.31 µM, a GI50 (HOP-62 NSCLC) of 0.519 µM and a TGI (HOP-62 NSCLC) of 3.16 µM. For the same compound, the GI50 (HOP-92 NSCLC) was 2.93 µM, the TGI (HOP-92 NSCLC) was 7.94 µM and the GI50 (HS 578T breast) was 1.2 µM. For the same compound, the TGI (HS 578T breast) was greater than 100 µM, the GI50 (HT29 colon) was 2.75 µM and the TGI (HT29 colon) was 7.03 µM. The GI50 (IGROV1 ovarian) was 1.99 µM, the TGI (IGROV1 ovarian) was 10.3 µM and the GI50 (K-562 leukemia) was 0.381 µM. It also gave a TGI (K-562 leukemia) greater than 100 µM, a GI50 (KM12 colon) of 0.506 µM and a TGI (KM12 colon) of 26.2 µM. It also gave a GI50 (LOX IMVI melanoma) of 0.497 µM, a TGI (LOX IMVI melanoma) of 3.29 µM and a GI50 (M14 melanoma) of 0.349 µM. For the same compound, the TGI (M14 melanoma) was 4.83 µM, the GI50 (MALME-3M melanoma) was 0.488 µM and the TGI (MALME-3M melanoma) was 5.03 µM. The GI50 (MCF7 breast) was 0.336 µM, the TGI (MCF7 breast) was 2.33 µM and the GI50 (MDA-MB-231 breast) was 2.38 µM. It also gave a TGI (MDA-MB-231 breast) of 23.4 µM, a GI50 (MDA-MB-435) of 0.243 µM and a TGI (MDA-MB-435) of 14.7 µM. The GI50 (MOLT-4 leukemia) was 0.425 µM, the TGI (MOLT-4 leukemia) was 3.46 µM and the GI50 (NCI-H226 lung) was 2.98 µM. For the same compound, the TGI (NCI-H226 lung) was 10.2 µM, the GI50 (NCI-H23 lung) was 1.06 µM and the TGI (NCI-H23 lung) was 5 µM. It also gave a GI50 (NCI-H460 lung) of 0.517 µM, a TGI (NCI-H460 lung) of 14.2 µM and a GI50 (NCI-H522 lung) of 0.196 µM. For the same compound, the TGI (NCI-H522 lung) was 0.837 µM, the GI50 (NCI/ADR-RES ovarian) was 0.538 µM and the TGI (NCI/ADR-RES ovarian) was 21.1 µM. It also gave a GI50 (OVCAR-4 ovarian) of 1.29 µM, a TGI (OVCAR-4 ovarian) greater than 100 µM and a GI50 (OVCAR-5 ovarian) of 2.71 µM. The TGI (OVCAR-5 ovarian) was 8.32 µM, the GI50 (OVCAR-8 ovarian) was 1.59 µM and the TGI (OVCAR-8 ovarian) was 6.09 µM. It also gave a GI50 (PC-3 prostate) of 1.8 µM, a TGI (PC-3 prostate) of 8.02 µM and a GI50 (RPMI-8226 leukemia) of 0.569 µM. The TGI (RPMI-8226 leukemia) was 7.62 µM, the GI50 (RXF 393 renal) was 1.27 µM and the TGI (RXF 393 renal) was 3.33 µM. For the same compound, the GI50 (SF-268 CNS) was 0.621 µM, the TGI (SF-268 CNS) was 9.84 µM and the GI50 (SF-295 CNS) was 3.07 µM. For the same compound, the TGI (SF-295 CNS) was 8.87 µM, the GI50 (SF-539 CNS) was 0.38 µM and the TGI (SF-539 CNS) was 2.85 µM. The GI50 (SK-MEL-2 melanoma) was 0.302 µM, the TGI (SK-MEL-2 melanoma) was 1.54 µM and the GI50 (SK-MEL-28 melanoma) was 1.19 µM. The TGI (SK-MEL-28 melanoma) was 7.32 µM, the GI50 (SK-MEL-5 melanoma) was 0.661 µM and the TGI (SK-MEL-5 melanoma) was 3.03 µM. The GI50 (SK-OV-3 ovarian) was 1.26 µM, the TGI (SK-OV-3 ovarian) was 3.43 µM and the GI50 (SN12C renal) was 0.935 µM. The TGI (SN12C renal) was 65.8 µM, the GI50 (SNB-19 CNS) was 1.41 µM and the TGI (SNB-19 CNS) was 11.7 µM. For the same compound, the GI50 (SNB-75 CNS) was 0.994 µM, the TGI (SNB-75 CNS) was 7.81 µM and the GI50 (SW-620 colon) was 0.659 µM. It also gave a TGI (SW-620 colon) greater than 100 µM, a GI50 (T-47D breast) of 1.25 µM and a TGI (T-47D breast) of 3.99 µM. For the same compound, the GI50 (TK-10 renal) was 1.79 µM, the TGI (TK-10 renal) was 8.06 µM and the GI50 (U251 CNS) was 0.916 µM. For the same compound, the TGI (U251 CNS) was 6.15 µM, the GI50 (UACC-257 melanoma) was 2.19 µM and the TGI (UACC-257 melanoma) was 7.13 µM. The GI50 (UACC-62 melanoma) was 0.552 µM, the TGI (UACC-62 melanoma) was 12 µM and the GI50 (UO-31 renal) was 0.362 µM. It also gave a TGI (UO-31 renal) of 2.3 µM.
